The results in this text go back to BindingDB's records for doi:10.1046/j.1471-4159.1996.67010145.x (Mcgill University, 1996).

“And” between values parts separate entries of the source, which are not always exact repeats. Identical values can stand only once.

Usually Ki stands for the equilibrium dissociation constant of an inhibitor or competing ligand from its target. Lower therefore signals higher affinity.

For the assay, the target named is T1, Alpha-bungarotoxin (Bungarus multicinctus, UniProt P60615).
T1 sequence (P60615 whole entry): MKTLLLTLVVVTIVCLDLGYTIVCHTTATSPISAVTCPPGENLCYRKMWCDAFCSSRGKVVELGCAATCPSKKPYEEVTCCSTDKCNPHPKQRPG
For `CN1CCC[C@H]1c1cccnc1` [(R,S)-nicotine], the Ki is 1700 nM and 900 nM.
`CC[N+](CC)(CC)CC` registered an inhibition constant Ki of over 10000 nM.
Next, `O=c1cccc2n1C[C@H]1CNC[C@H]2C1` [(1S,9R)-7,11-diazatricyclo[7.3.1.0~2,7~]trideca-2,4-dien-6-one]: 1800 nM; `CCN1C[C@]2(COC(=O)c3ccccc3-n3c(O)cc(C)c3O)CC[C@H](OC)[C@]34C5C[C@@H]6[C@@H](OC)C[C@@](O)(C5[C@H]6OC)[C@@](O)(C13)[C@@H](OC)C24` (stereo partly drawn) [[(1S,4S,5R,6S,8R,9R,13S,16S,18S)-11-ethyl-8,9-dihydroxy-4,6,16,18-tetramethoxy-11-azahexacyclo[7.7.2.1^{2,5}.0^{1,10}.0^{3,8}.0^{13,17}]nonadecan-13-yl]methyl 2-[(3S)-3-methyl-2,5-dioxopyrrolidin-1-yl]benzoate]: 7.9 nM and 3.1 nM; `C[N+](C)(C)CCOC(N)=O` [(2-Hydroxyethyl)trimethyl ammonium chloride carbamate]: 9300 nM.
To `C=C(C=O)C[C@H]1C[C@H](O)[C@]2(C)O[C@@H]3C[C@@H]4O[C@@H]5C[C@]6(C)O[C@]7(C)CC[C@@H]8O[C@@H]9C[C@]%10(C)O[C@@H]%11C(C)=CC(=O)O[C@H]%11C[C@H]%10O[C@H]9C[C@@H](C)[C@H]8O[C@H]7C[C@H]6O[C@@]5(C)C/C=C\[C@H]4O[C@H]3C[C@H]2O1` belongs 0.35 nM and 0.23 nM; to `C[N+]1(C)CCN(c2ccccc2)CC1` [DMPP], 670 nM; to `C[N+](C)(C)C`, 2400 nM.
To `COc1cc2c3cc1Oc1cc(ccc1O)C[C@H]1c4c(cc(OC)c(O)c4Oc4ccc(cc4)C[C@@H]3N(C)CC2)CC[N+]1(C)C` [CAS_57-94-3] belongs 5600 nM.
